Reference: ChEMBL document CHEMBL4402534, “Dihydroorotate dehydrogenase inhibitors in anti-infective drug research” (Eur J Med Chem, 2019)
Converted amounts (≈) assume the structure as drawn.

Experiments:
[1] = system: West Nile virus; experiment: Antiviral activity against West Nile virus infected in human A549 cells assessed as reduction in virus replication; format: functional, organism-based
[2] = system: Vesicular stomatitis virus; experiment: Antiviral activity against Vesicular stomatitis virus infected in human A549 cells assessed as reduction in virus replication; format: functional, organism-based
[3] = system: Dengue virus; experiment: Antiviral activity against Dengue virus infected in human A549 cells assessed as reduction in virus replication; format: functional, organism-based
[4] = system: Western equine encephalitis virus; experiment: Antiviral activity against Western equine encephalomyelitis virus infected in human A549 cells assessed as reduction in virus replication; format: functional, organism-based
[5] = target: T1, Dihydroorotate dehydrogenase (quinone), mitochondrial (Homo sapiens, UniProt Q02127); experiment: Inhibition of human DHODH
[6] = system: Yellow fever virus; experiment: Antiviral activity against Yellow fever virus infected in human A549 cells assessed as reduction in virus replication; format: functional, organism-based
[7] = Inhibition of Helicobacter pylori DHODH
[8] = system: Helicobacter pylori; experiment: Antibacterial activity against Helicobacter pylori by whole cell-based assay; format: functional
[9] = Inhibition of Aspergillus fumigatus DHODH
[10] = Inhibition of Escherichia coli DHODH
[11] = Inhibition of Enterococcus faecalis DHODH
[12] = Inhibition of Babesia bovis DHODH
[13] = Inhibition of Plasmodium falciparum DHODH
[14] = target: T1, Dihydroorotate dehydrogenase (quinone), mitochondrial; experiment: Inhibition of DHODH (unknown origin)
[15] = system: Dengue virus; experiment: Antiviral activity against Dengue virus assessed as reduction in virus replication; format: functional, organism-based
[16] = Selectivity index, ratio of IC50 for human DHODH to IC50 for Schistosoma mansoni DHODH
[17] = system: Human alphaherpesvirus 3; experiment: Antiviral activity against Varicella zoster virus; format: functional, organism-based
[18] = system: Human alphaherpesvirus 2; experiment: Antiviral activity against Herpes simplex viruses type 2; format: functional, organism-based
[19] = system: Cytomegalovirus; experiment: Antiviral activity against Cytomegalovirus; format: functional, organism-based; settings: Human betaherpesvirus 5
[20] = Antiviral activity against Human herpesvirus 6 type A; format: functional, Human herpesvirus 6A
[21] = system: Human alphaherpesvirus 1; experiment: Antiviral activity against Herpes simplex viruses type 1; format: functional, organism-based

T1 sequence (Q02127 whole entry): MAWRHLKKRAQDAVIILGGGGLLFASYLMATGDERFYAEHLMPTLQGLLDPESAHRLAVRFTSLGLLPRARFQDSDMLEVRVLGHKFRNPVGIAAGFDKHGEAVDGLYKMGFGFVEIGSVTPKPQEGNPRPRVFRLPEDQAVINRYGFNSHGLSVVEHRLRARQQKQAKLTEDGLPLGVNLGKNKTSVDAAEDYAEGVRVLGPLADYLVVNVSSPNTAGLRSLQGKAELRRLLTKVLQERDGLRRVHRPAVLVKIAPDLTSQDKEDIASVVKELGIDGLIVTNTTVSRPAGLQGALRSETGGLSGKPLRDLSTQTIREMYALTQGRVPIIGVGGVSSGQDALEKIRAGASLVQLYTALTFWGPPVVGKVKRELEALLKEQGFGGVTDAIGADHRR

SMILES: COC(=O)c1c(-c2c(Cl)cccc2Cl)noc1-c1cnn(-c2cccc(Cl)c2)c1C(F)(F)F
- EC50 [1]: 2.4 nM
- EC50 [2]: 2.4 nM
- EC50 [3]: 2.4 nM
- EC50 [4]: 2.4 nM
- IC50 [5]: 103 nM
- EC50 [6]: 2.4 nM

SMILES: COc1ccc(-n2nc(C(=O)Nc3ccccc3O)cc2C(=O)Nc2ccc(C(=O)N3CCCC3)cc2)cc1
- Ki [7]: 50 nM

SMILES: O=C(NCc1cccnc1)c1cc(C(=O)Nc2ccccc2)n(-c2ccc(Cl)cc2)n1
- MIC [8]: 0.25 µg/mL (≈ 0.579 µM)
- Ki [7]: 4 nM

SMILES: Cc1cc(-c2ccccc2)c(C(=O)C(=O)Nc2ccc(N3CCN(c4ncc(F)cn4)CC3)cc2)n1C [OLOROFIM]
- IC50 [9]: 44 nM
- IC50 [5]: > 100000 nM

SMILES: O=c1sn(-c2ccccc2)c(=O)n1-c1ccc(F)cc1
- IC50 [10]: 840 nM
- IC50 [5]: > 100000 nM
- IC50 [11]: 75 nM

SMILES: Cc1oncc1C(=O)Nc1ccc(C(F)(F)F)cc1 [LEFLUNOMIDE]
- IC50 [12]: 52400 nM

SMILES: Cc1nc2c(C#N)cccc2n1-c1ccc(C(=O)NC2CC2)s1
- IC50 [13]: 50 nM

SMILES: Cc1[nH]c2ccc(-c3nnc(SCC(=O)N4CCCC4)o3)cc2c1C
- IC50 [14]: 1130 nM

SMILES: CSC(=NCn1c(C/C=C(\C)CCC=C(C)C)c(C)c(=O)c2ccccc21)SC
- IC50 [7]: 11100 nM

SMILES: O=C(N[C@@H]1CCCc2c1[nH]c1ccc(Cl)cc21)c1ccccn1
- IC50 [15]: 13.3 nM
- Ki [5]: 203 nM

SMILES: Cc1nc2cc(OC(F)(F)F)ccc2n1-c1ccc(C(=O)NC2CC2)s1
- IC50 [13]: 220 nM

SMILES: O=C(NCc1ccccc1)c1cc(C(=O)Nc2ccccc2)n(-c2ccc(Cl)cc2)n1
- MIC [8]: 0.125 µg/mL (≈ 0.29 µM)
- Ki [7]: 4 nM

SMILES: C[C@H](c1ccc(-c2ccccc2)cc1)N(C)C(=O)CSc1nnnn1-c1ccc(O)cc1
- IC50 [14]: 41000 nM

SMILES: COc1ccc(-n2nc(C(=O)NCc3ccccc3)cc2C(=O)Nc2ccc(C(=O)N3CCCC3)cc2)cc1
- MIC [8]: 3 µg/mL (≈ 5.73 µM)
- Ki [7]: 26 nM

SMILES: Cc1nc2c(OC(F)F)cccc2n1-c1ccc(C(=O)NC2CC2)s1
- IC50 [13]: 220 nM

SMILES: Cc1cc(Nc2ccc(S(F)(F)(F)(F)F)cc2)n2ncnc2n1
- IC50 [13]: 130 nM

SMILES: O=C1C(O)=C([C@H]2CC[C@H](c3ccc(Cl)cc3)CC2)C(=O)c2ccccc21 [ATOVAQUONE]
- Ratio IC50 [16]: 6
- IC50 [5]: 2600 nM
- IC50 [12]: 2.38 nM

SMILES: Cc1c(-c2ccc(-c3ccccc3F)cc2)nc2ccc(F)cc2c1C(=O)O [BREQUINAR]
- EC50 [1]: 78 nM
- EC50 [2]: 78 nM
- EC50 [3]: 78 nM
- EC50 [4]: 78 nM
- EC50 [6]: 78 nM
- IC50 [12]: 52400 nM

SMILES: O=C(Nc1c(F)c(F)c(-c2cccc(OC(F)(F)F)c2)c(F)c1F)c1ccsc1C(=O)O [KIO-100]
- IC50 [17]: 3.55 nM
- IC50 [18]: > 10000 nM
- IC50 [19]: 1500 nM
- IC50 [20]: 1.55 nM
- IC50 [21]: > 10000 nM

SMILES: CCCCCCCCc1[nH]c2ccccc2c(=O)c1C
- IC50 [7]: 4550 nM
